Several values for one entry are separate records, joined by “and”; a condition that tells them apart may be missing. Identical values can stand only once.
Experiments:
[1] = target: T1, CB1 (rCB1) (Rattus norvegicus, UniProt P20272); assay: Radioligand competition binding, [3H]-CP-55,940, rat brain membranes
[2] = target: T2, hCB1 (Homo sapiens, UniProt P21554); assay: Tango β-arrestin-2 recruitment, HTLA cells, CB1R; format: cell-based; parameters: expressed in transfected cells; host or cells: HTLA cells (gift of R. Axel), transient transfection
[3] = target: T1, CB1 (rCB1); assay: Single-point radioligand displacement screen; format: binding; conditions: 10 µM, 1 µM or 300 nM by cell colour (not visible)
[4] = target: T2, hCB1; assay: bioSensAll ebBRET signaling profiling, hCB1; format: cell-based; parameters: host or cells: HEK293SL cells, transient PEI transfection; conditions: for Gi1 hCB1 response: Gi1 biosensor; for Gi1 hCB1 / GoB hCB1: single replicate values, FigS6a

T2 sequence (P21554 whole entry): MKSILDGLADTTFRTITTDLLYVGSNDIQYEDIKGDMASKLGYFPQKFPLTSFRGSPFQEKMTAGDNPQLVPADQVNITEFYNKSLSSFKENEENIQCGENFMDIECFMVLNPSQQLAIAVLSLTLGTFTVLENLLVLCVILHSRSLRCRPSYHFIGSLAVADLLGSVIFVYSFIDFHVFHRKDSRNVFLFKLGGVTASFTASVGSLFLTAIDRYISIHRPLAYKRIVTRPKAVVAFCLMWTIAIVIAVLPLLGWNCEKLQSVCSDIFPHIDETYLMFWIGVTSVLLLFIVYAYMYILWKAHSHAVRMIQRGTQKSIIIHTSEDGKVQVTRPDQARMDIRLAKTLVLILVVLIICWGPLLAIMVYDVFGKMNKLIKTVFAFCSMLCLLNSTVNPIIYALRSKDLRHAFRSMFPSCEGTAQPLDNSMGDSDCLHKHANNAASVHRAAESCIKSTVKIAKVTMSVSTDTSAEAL
T1 sequence (P20272 whole entry): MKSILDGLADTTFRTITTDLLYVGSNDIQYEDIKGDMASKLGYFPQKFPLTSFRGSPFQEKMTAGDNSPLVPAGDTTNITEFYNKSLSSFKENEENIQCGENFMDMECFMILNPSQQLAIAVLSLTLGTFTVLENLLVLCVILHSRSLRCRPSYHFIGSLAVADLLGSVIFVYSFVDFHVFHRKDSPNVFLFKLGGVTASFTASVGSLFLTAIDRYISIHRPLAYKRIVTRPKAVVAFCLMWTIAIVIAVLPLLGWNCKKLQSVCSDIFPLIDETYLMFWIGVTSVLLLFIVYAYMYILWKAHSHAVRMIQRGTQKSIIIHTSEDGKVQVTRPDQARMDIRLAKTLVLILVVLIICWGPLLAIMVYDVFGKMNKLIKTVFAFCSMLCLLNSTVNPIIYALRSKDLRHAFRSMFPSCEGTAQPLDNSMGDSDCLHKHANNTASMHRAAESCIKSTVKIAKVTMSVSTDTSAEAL

COC(=O)[C@@H]1[C@@H]2CCC[C@@H]2CN1C(=O)c1cc(C)n(-c2cccc(Cl)c2)n1 (racemic) [‘10010]
pKi [95% CI] ([1]; rCB1): 5.9 [5.8 – 6.0] | Ki ([1]; read-out: Ki [95% CI], rCB1, [3H]-CP-55,940): 1200 nM | response, replicate values of concentration-response curve (FigS7f) ([2]; Log[drug], M = -4.52): 24.852 and -9.474 and 31.57 and 49.261 and 34.9163 and 58.51 and 43.3772 and 13.5605 and 34.2635 and 143.166 and 149.946 and 121.258 | response, replicate values of concentration-response curve (FigS7f) ([2]; Log[drug], M = -5): -6.393 and 4.812 and 50.5074 and 20.7309 and 18.1964 and 30.378 and 30.3734 and 43.3772 and 17.784 and 37.7997 and 110.741 and 29.9442 | response at Log[drug], M -5 (FigS4e) ([2]; Log[drug], M = -5, individual replicates): 7.472 and 8.685 and 7.884 and 5.743 and 2.852 and 6.706 and 6.083 and 7.677 and 9.73 and 9.693 and 11.3624 and 13.6983 | response, replicate values of concentration-response curve (FigS7f) ([2]; Log[drug], M = -5.52): -20.324 and 14.103 and 31.5067 and 7.169 and 19.8684 and 6.1872 and -9.345 and -6.435 and -28.1989 and 72.0832 and 46.8763 and 64.173 | response at Log[drug], M -5.52 (FigS4e) ([2]; Log[drug], M = -5.52, individual replicates): 17.6293 and 13.3704 and 15.7552 and 17.3388 and 7.111 and 7.22 and 6.777 and 6.548 and 14.8053 and 14.1767 and 12.0847 and 15.6871 | response, replicate values of concentration-response curve (FigS7f) ([2]; Log[drug], M = -6): -1.057 and 19.693 and 21.3155 and 18.7272 and -21.0026 and 10.5662 and 17.0767 and 0.7084 and 10.105 and 46.129 and 8.583 and -11.9397 | response at Log[drug], M -6 (FigS4e) ([2]; Log[drug], M = -6, individual replicates): 17.4137 and 13.2205 and 12.7098 and 18.5288 and 2.8 and 2.042 and 0.7471 and 2.0116 and 5.809 and 8.098 and 10.8652 and 9.299 | response, replicate values of concentration-response curve (FigS7f) ([2]; Log[drug], M = -6.52): 16.7142 and -12.7567 and -9.207 and 42.4801 and 2.591 and -9.299 and -1.706 and 6.518 and 3.588 and 25.7157 and 29.853 and 20.7035 | response at Log[drug], M -6.52 (FigS4e) ([2]; Log[drug], M = -6.52, individual replicates): 5.804 and 6.685 and 5.518 and 6.338 and -2.975 and -1.665 and -2.183 and -3.091 and 1.981 and 0.8276 and 5.1991 and 1.175 | response, replicate values of concentration-response curve (FigS7f) ([2]; Log[drug], M = -7): 11.1876 and 2.403 and 33.2939 and -14.3677 and -5.119 and -14.8322 and -4.192 and -26.8955 and -17.9232 and -30.0748 and 5.375 and 20.4665 | response at Log[drug], M -7 (FigS4e) ([2]; Log[drug], M = -7, individual replicates): 8.629 and 6.746 and 5.86 and 10.4703 and -2.0219 and -2.877 and 1.224 and -2.078 and 2.76 and 0.06777 and 1.494 and 1.231 | response, replicate values of concentration-response curve (FigS7f) ([2]; Log[drug], M = -7.52): -4.594 and -7.623 and -10.5004 and 2.14 and -6.485 and 4.329 and -8.365 and -9.244 and -13.1441 and 57.083 and -23.4769 and -26.8306 | response at Log[drug], M -7.52 (FigS4e) ([2]; Log[drug], M = -7.52, individual replicates): 7.402 and 10.1376 and 9.341 and 5.865 and -1.189 and -1.594 and -1.932 and -1.59 and 2.357 and 3.37 and 0.3773 and 1.259 | response at Log[drug], M -8 (FigS4e) ([2]; Log[drug], M = -8, individual replicates): 5.148 and 6.741 and 11.0794 and 7.462 and -3.208 and -1.519 and -1.219 and -1.073 and 3.632 and 3.698 and 2.085 and 1.362 | response at Log[drug], M -8.52 (FigS4e) ([2]; Log[drug], M = -8.52, individual replicates): 6.619 and 9.146 and 5.084 and 9.668 and -0.1198 and -1.382 and -2.75 and -0.9228 and 3.28 and -0.4583 and 7.234 and 5.093 | response at Log[drug], M -9 (FigS4e) ([2]; Log[drug], M = -9, individual replicates): 7.852 and 7.417 and 8.056 and 9.08 and -2.328 and -1.287 and -1.685 and -1.328 and 7.254 and 4.304 and 5.943 and 1.774 | response, replicate values of concentration-response curve (FigS7f) ([2]; Log[drug], M = -9.52): 6.738 and -6.178 and -20.755 and -11.5014 | response at Log[drug], M -9.52 (FigS4e) ([2]; Log[drug], M = -9.52, individual replicates): 9.847 and 11.0284 and 11.6628 and 8.737 and -1.263 and 0.9084 and -0.5418 and -0.1936 and 4.704 and 2.799 and 4.5399 and 1.57 | response, replicate values of concentration-response curve (FigS7f) ([2]; Log[drug], M = -10): 28.4645 and -14.1129 and -6.736 and 44.2981 and 21.9252 and 39.0432 and 53.2891 and 13.6717 and 41.3867 and -34.1393 and -0.001553 and -21.0711 | response at Log[drug], M -10 (FigS4e) ([2]; Log[drug], M = -10, individual replicates): 10.788 and 9.1102 and 5.959 and 9.12 and -1.758 and -1.431 and -1.611 and -0.8081 and 3.28 and 4.704 and 4.745 and 3.311 | response at Log[drug], M -10.52 (FigS4e) ([2]; Log[drug], M = -10.52, individual replicates): 6.358 and 9.064 and 8.9107 and 9.172 and 1.265 and 0.1792 and -0.6688 and 1.04 and 3.157 and 2.819 and 2.153 and 4.1507 | response at Log[drug], M -11 (FigS4e) ([2]; Log[drug], M = -11, individual replicates): 2.256 and 6.798 and 9.796 and 5.744 and -1.353 and -1.763 and 1.556 and -0.804 and 2.6758 and 2.932 and 3.905 and 1.57 | response at Log[drug], M -11.52 (FigS4e) ([2]; Log[drug], M = -11.52, individual replicates): 2.281 and 3.903 and 3.253 and 1.1509 and 1.314 and 0.9699 and 1.212 and 0.552 and 3.905 and 2.9421 and 2.881 and 4.816 | response at Log[drug], M -12 (FigS4e) ([2]; Log[drug], M = -12, individual replicates): 1.069 and -1.289 and -0.4859 and 0.7059 and -0.1854 and 0.7118 and -1.111 and 0.5848 and 1.078 and -0.868 and 0.4635 and -0.6734 | EC50 ([2]; hCB1, read-out: Tango ß-arrestin recruitment EC50): > 10000 nM | % 1H-CP-55,940 displacement (mean) from single point screen [3]: 33.86% | Gi1 hCB1 response ([4]; Log [Compound] (M) -4.22186): 123.556 | Gi1 hCB1 response ([4]; Log [Compound] (M) -4.63927): 104.286 | Gi1 hCB1 response ([4]; Log [Compound] (M) -5.05788): 90.0738 | Gi1 hCB1 response ([4]; Log [Compound] (M) -5.47381): 84.2546 | Gi1 hCB1 response ([4]; Log [Compound] (M) -5.89285): 64.3799 | Gi1 hCB1 response ([4]; Log [Compound] (M) -6.31878): 42.6475 | Gi1 hCB1 response ([4]; Log [Compound] (M) -6.72585): 30.3601 | Gi1 hCB1 response ([4]; Log [Compound] (M) -7.14267): 11.5597 | Gi1 hCB1 response ([4]; Log [Compound] (M) -7.55284): 0.9285 | Gi1 hCB1 response ([4]; Log [Compound] (M) -8): 10.9106 | Gi1 hCB1 response ([4]; Log [Compound] (M) -8.22186): -8.695 | Gi1 hCB1 response ([4]; Log [Compound] (M) -8.39794): 0.6152 | Gi1 hCB1 response ([4]; Log [Compound] (M) -8.68787): -2.362 | Gi1 hCB1 response ([4]; Log [Compound] (M) -9.61989): -10.5755 | Gi1 hCB1 response ([4]; Log [Compound] (M) -10.0969): -9.255 | Gi1 hCB1 response ([4]; Log [Compound] (M) -10.5529): -7.5988 | Gi1 hCB1 response ([4]; Log [Compound] (M) -11.0177): -15.9247 | Gi1 hCB1 response ([4]; Log [Compound] (M) -11.4949): -7.532 | Gi1 hCB1 response ([4]; Log [Compound] (M) -11.9208): -15.2309 | Gi1 hCB1 response ([4]; Log [Compound] (M) -12.3979): -21.4305 | Gi1 hCB1 response ([4]; Log [Compound] (M) -12.8861): 1.8014 | Gi1 hCB1 response ([4]; Log [Compound] (M) -13, individual replicate values): -0.8396 and -0.9068 | Gi1 hCB1 ([4]; Log [Compound] (M) -4.22186): 75.9694 | GoB hCB1 ([4]; Log [Compound] (M) -4.22186): 69.5491 | Gi1 hCB1 ([4]; Log [Compound] (M) -4.63927): 67.922 | GoB hCB1 ([4]; Log [Compound] (M) -4.63927): 64.6397 | Gi1 hCB1 ([4]; Log [Compound] (M) -5.05788): 66.8428 | GoB hCB1 ([4]; Log [Compound] (M) -5.05788): 63.4708 | Gi1 hCB1 ([4]; Log [Compound] (M) -5.47381): 60.337

— article PMC11882969 (Nature Communications, 2025)
